Source: ChEMBL document CHEMBL4177524, “Discovery of hepatitis B virus capsid assembly inhibitors leading to a heteroaryldihydropyrimidine based clinical candidate (GLS4)” (Bioorg Med Chem, 2017)

What was measured:
[1] = Drug uptake in beagle dog liver by LC/MS/MS analysis; assay type: ADME, tissue-based, Canis lupus familiaris; conditions: in vivo
Trypsin (Homo sapiens) = Trypsin (Homo sapiens) (UniProt P07477+P07478+P35030); assay: Inhibition of trypsin (unknown origin) at 1 uM; assay type: protein assay
[2] = target: Low molecular weight phosphotyrosine protein phosphatase (Homo sapiens) (UniProt P24666); assay: Inhibition of ACP1 (unknown origin) at 1 uM
[3] = AUC (0 to 24 hrs) in beagle dog at 15 mg/kg, po by LC/MS/MS analysis; assay type: ADME, organism-based, Canis lupus familiaris; design: dose 15 mg/kg, time < 24 hr, route oral; conditions: in vivo
[4] = target: Death-associated protein kinase 1 (Homo sapiens) (UniProt P53355); assay: Inhibition of DAPK1 (unknown origin) at 1 uM
[5] = target: Sodium/potassium-transporting ATPase (Homo sapiens) (UniProt P05023+P14415+P05026+P50993+P54709+P13637+Q13733+P54710); assay: Inhibition of Sodium/potassium-transporting ATPase (unknown origin) at 1 uM; assay type: protein-complex assay
[6] = Half life in beagle dog at 5 mg/kg, po by LC/MS/MS analysis; conditions: in vivo
[7] = Volume of distribution at steady state in beagle dog at 5 mg/kg, iv by LC/MS/MS analysis; assay type: ADME, organism-based, Canis lupus familiaris; conditions: in vivo, read-out: Vdss
Homo sapiens [8] = species on record: Homo sapiens; assay: Inhibition of lipase (unknown origin) at 1 uM
[9] = Drug uptake in beagle dog heart by LC/MS/MS analysis; assay type: ADME, tissue-based, Canis lupus familiaris; conditions: in vivo
[10] = Clearance in beagle dog at 5 mg/kg, iv by LC/MS/MS analysis; assay type: ADME, organism-based, Canis lupus familiaris; conditions: in vivo
[11] = AUC (0 to 24 hrs) in beagle dog at 5 mg/kg, po by LC/MS/MS analysis; assay type: ADME, organism-based, Canis lupus familiaris; design: time < 24 hr, dose 5 mg/kg, route oral; conditions: in vivo
[12] = target: Sodium-dependent serotonin transporter (Homo sapiens) (UniProt P31645); assay: Inhibition of 5-Serotonin transporter (unknown origin) at 1 uM
[13] = target: Proto-oncogene tyrosine-protein kinase Src (Homo sapiens) (UniProt P12931); assay: Inhibition of SRC (unknown origin) at 1 uM
Sequence of Proto-oncogene tyrosine-protein kinase Src (Homo sapiens) (P12931 2-536 limits assumed): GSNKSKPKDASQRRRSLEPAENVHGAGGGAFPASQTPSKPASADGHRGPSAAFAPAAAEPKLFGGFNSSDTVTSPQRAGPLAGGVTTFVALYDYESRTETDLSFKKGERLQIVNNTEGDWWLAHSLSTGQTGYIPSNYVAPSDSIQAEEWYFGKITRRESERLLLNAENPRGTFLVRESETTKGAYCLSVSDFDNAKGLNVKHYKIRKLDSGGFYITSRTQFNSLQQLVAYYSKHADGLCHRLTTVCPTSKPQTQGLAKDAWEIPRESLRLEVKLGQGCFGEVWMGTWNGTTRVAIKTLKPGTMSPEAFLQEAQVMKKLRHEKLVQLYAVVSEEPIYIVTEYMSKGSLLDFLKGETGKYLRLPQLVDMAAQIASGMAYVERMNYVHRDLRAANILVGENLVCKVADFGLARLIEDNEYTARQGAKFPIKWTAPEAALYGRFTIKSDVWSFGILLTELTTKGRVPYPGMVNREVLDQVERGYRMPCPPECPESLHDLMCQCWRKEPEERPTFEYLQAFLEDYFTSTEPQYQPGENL

Canis familiaris [14] = assay: Cmax in beagle dog at 15 mg/kg, po for 7 days by LC/MS/MS analysis; assay type: ADME, organism-based, Canis lupus familiaris; design: dose 15 mg/kg, route oral; conditions: in vivo, 168 h
[15] = Toxicity in beagle dog administered via oral gavage for 28 days; assay type: organism-based, Canis lupus familiaris; conditions: in vivo
[16] = target: Protein kinase C alpha type (Homo sapiens) (UniProt P17252); assay: Inhibition of PKCalpha (unknown origin) at 1 uM
[17] = target: Calcium/calmodulin-dependent protein kinase type II subunit delta (Homo sapiens) (UniProt Q13557); assay: Inhibition of CAMK2D (unknown origin) at 1 uM
[18] = AUC (0 to 24 hrs) in beagle dog at 15 mg/kg, po for 7 days by LC/MS/MS analysis; assay type: ADME, organism-based, Canis lupus familiaris; design: time < 24 hr, dose 15 mg/kg, route oral; conditions: in vivo
[19] = AUC (0 to 24 hrs) in beagle dog at 5 mg/kg, iv by LC/MS/MS analysis; assay type: ADME, organism-based, Canis lupus familiaris; design: dose 5 mg/kg, time < 24 hr, route intravenous; conditions: in vivo
in vivo [20] = conditions: beagle, dog, po, 5 mg/kg
[21] = target: 72 kDa type IV collagenase (Homo sapiens) (UniProt P08253); assay: Inhibition of MMP2 (unknown origin) at 1 uM
Sequence of 72 kDa type IV collagenase (Homo sapiens) (P08253 110-660 limits assumed): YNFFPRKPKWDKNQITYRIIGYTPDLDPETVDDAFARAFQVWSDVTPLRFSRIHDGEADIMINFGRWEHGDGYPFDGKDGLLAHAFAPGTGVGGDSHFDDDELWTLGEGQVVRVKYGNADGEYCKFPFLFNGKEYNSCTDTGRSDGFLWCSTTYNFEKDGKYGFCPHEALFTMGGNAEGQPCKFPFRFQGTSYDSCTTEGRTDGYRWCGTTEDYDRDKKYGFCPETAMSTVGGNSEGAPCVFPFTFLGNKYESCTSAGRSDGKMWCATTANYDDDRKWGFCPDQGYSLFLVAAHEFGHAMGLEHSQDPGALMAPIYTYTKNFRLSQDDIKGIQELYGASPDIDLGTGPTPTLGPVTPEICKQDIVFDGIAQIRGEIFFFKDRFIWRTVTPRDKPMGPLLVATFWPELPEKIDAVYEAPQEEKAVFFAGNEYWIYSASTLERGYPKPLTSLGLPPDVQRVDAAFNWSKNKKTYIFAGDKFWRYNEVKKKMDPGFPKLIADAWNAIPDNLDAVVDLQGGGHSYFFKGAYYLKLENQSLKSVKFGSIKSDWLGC

[22] = target: Bile acid receptor (Homo sapiens) (UniProt Q96RI1); assay: Antagonist activity at FXR (unknown origin) at 1 uM
Sequence of Bile acid receptor (Homo sapiens) (Q96RI1 whole entry): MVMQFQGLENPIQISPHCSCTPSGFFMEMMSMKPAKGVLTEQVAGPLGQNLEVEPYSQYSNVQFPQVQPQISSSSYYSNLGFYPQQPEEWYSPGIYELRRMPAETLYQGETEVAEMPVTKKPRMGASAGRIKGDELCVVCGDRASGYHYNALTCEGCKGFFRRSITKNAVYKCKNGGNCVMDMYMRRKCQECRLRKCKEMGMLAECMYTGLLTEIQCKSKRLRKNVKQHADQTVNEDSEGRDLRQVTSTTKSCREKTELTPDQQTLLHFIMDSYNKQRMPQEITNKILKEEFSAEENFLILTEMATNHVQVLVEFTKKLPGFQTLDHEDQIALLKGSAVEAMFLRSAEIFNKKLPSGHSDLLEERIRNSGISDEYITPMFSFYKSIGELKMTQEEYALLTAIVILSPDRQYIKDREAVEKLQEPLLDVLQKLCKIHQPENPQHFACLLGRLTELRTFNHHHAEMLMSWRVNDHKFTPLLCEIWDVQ

Canis familiaris [23] = assay: Cmax in beagle dog at 5 mg/kg, po by LC/MS/MS analysis; assay type: ADME, organism-based, Canis lupus familiaris; design: dose 5 mg/kg, route oral; conditions: in vivo
[24] = Half life in beagle dog at 5 mg/kg, iv by LC/MS/MS analysis; conditions: in vivo
[25] = target: Mitogen-activated protein kinase 3 (Homo sapiens) (UniProt P27361); assay: Inhibition of ERK1 (unknown origin) at 1 uM
[26] = target: RAC-alpha serine/threonine-protein kinase (Homo sapiens) (UniProt P31749); assay: Inhibition of AKT1 (unknown origin) at 1 uM
in vivo [27] = conditions: beagle, dog, po, 15 mg/kg
Description: Half life in beagle dog at 15 mg/kg, po for 7 days by LC/MS/MS analysis

[28] = Drug uptake in beagle dog brain by LC/MS/MS analysis; assay type: ADME, tissue-based, Canis lupus familiaris; conditions: in vivo
[29] = target: Core antigen (Hepatitis B virus) (UniProt Q03732); assay: Inhibition of hepatitis B virus capsid assembly infected in human HepG2.215 cells assessed as reduction in viral DNA replication measured on day 7 by real time PCR analysis; assay type: cell-based
Sequence of Core antigen (Hepatitis B virus) (Q03732 as listed by the source): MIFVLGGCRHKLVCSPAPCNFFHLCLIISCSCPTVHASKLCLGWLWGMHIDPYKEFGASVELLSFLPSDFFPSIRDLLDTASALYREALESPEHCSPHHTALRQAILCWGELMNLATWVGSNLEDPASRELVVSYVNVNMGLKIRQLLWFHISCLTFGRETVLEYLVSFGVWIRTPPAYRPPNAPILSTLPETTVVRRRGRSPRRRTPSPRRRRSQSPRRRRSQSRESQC

[30] = target: Tyrosine-protein kinase ZAP-70 (Homo sapiens) (UniProt P43403); assay: Inhibition of ZA70 (unknown origin) at 1 uM
Canis familiaris [31] = assay: Cmax in beagle dog at 15 mg/kg, po by LC/MS/MS analysis; assay type: ADME, organism-based, Canis lupus familiaris; design: dose 15 mg/kg, route oral; conditions: in vivo
[32] = target: Epidermal growth factor receptor (Homo sapiens) (UniProt P00533); assay: Inhibition of EGFR (unknown origin) at 1 uM
Sequence of Epidermal growth factor receptor (Homo sapiens) (P00533 whole entry): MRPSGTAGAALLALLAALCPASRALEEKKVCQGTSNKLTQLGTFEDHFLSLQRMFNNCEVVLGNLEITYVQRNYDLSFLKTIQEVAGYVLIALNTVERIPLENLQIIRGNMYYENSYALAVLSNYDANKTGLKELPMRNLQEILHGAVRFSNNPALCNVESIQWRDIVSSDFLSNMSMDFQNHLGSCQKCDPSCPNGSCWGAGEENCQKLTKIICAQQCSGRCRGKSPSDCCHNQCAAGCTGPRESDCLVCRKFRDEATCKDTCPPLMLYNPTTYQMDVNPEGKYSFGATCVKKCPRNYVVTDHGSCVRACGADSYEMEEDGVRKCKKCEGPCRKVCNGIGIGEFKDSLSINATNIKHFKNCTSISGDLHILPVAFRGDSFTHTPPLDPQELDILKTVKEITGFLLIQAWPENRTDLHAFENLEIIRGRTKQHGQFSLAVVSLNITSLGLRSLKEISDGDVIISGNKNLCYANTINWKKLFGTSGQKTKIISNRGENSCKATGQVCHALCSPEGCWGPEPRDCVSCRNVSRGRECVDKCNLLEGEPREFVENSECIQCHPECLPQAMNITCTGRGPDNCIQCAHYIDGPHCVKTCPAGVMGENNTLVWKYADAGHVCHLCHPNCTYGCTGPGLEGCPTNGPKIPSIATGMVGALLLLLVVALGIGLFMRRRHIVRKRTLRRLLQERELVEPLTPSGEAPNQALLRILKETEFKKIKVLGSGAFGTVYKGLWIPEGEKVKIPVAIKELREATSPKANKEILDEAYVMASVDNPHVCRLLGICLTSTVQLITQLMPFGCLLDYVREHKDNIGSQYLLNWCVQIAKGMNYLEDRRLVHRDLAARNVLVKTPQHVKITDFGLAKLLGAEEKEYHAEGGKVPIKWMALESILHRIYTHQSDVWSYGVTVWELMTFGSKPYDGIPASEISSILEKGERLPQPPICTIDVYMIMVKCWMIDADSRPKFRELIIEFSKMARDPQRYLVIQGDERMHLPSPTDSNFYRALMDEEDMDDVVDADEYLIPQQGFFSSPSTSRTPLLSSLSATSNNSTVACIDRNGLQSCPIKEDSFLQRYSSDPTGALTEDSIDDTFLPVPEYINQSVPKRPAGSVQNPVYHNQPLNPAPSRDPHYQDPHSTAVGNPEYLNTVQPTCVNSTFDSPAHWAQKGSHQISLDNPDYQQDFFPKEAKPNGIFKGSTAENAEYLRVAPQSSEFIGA

[33] = target: Interleukin-8 receptors, CXCR1/CXCR2 (Homo sapiens) (UniProt P25025+P25024); assay: Inhibition of CXCR1/2 (unknown origin) at 1 uM; assay type: protein assay
[34] = target: Nitric oxide synthase, inducible (Homo sapiens) (UniProt P35228); assay: Inhibition of iNOS (unknown origin) at 1 uM
[35] = AUC (0 to 24 hrs) in beagle dog at 45 mg/kg, po by LC/MS/MS analysis; assay type: ADME, organism-based, Canis lupus familiaris; design: time < 24 hr, dose 45 mg/kg, route oral; conditions: in vivo
Homo sapiens [36] = species on record: Homo sapiens; assay: Inhibition of proteasome (unknown origin) at 1 uM
[37] = target: Platelet-activating factor receptor (Homo sapiens) (UniProt P25105); assay: Inhibition of platelet-activating factor receptor (unknown origin) at 1 uM
[38] = target: Tyrosine-protein kinase JAK2 (Homo sapiens) (UniProt O60674); assay: Inhibition of JAK2 (unknown origin) at 1 uM
[39] = target: NAD-dependent protein deacetylase sirtuin-1 (Homo sapiens) (UniProt Q96EB6); assay: Inhibition of SIRT1 (unknown origin) at 1 uM
Homo sapiens [40] = species on record: Homo sapiens; assay: Inhibition of calcium channel (unknown origin) at 1 uM
Canis familiaris [41] = assay: Biotransformation in po dosed beagle dog assessed as (S)-Ethyl 4-(2-bromo-4-fluorophenyl)-6-(morpholinomethyl)-2-(thiazol-2-yl)-1,4-dihydropyrimidine-5-carboxylate formation; assay type: ADME, organism-based, Canis lupus familiaris; conditions: in vivo
[42] = target: Adenosine receptor A1 (Homo sapiens) (UniProt P30542); assay: Inhibition of adenosine receptor A1 (unknown origin) at 1 uM
Sequence of Adenosine receptor A1 (Homo sapiens) (P30542 whole entry): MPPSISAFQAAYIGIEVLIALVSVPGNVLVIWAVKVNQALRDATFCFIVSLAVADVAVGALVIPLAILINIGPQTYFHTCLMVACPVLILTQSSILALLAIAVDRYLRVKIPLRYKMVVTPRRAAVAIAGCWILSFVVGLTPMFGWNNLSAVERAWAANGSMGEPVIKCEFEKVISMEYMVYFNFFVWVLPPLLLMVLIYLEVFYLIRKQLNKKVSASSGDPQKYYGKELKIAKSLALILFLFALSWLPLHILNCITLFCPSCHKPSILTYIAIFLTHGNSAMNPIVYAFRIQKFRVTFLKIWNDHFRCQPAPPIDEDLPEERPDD

Canis familiaris [43] = assay: Biotransformation in po dosed beagle dog assessed as (R)-Ethyl 4-(2-bromo-4-fluorophenyl)-6-(morpholinomethyl)-2-(thiazol-2-yl)-1,4-dihydropyrimidine-5-carboxylate formation; assay type: ADME, organism-based, Canis lupus familiaris; conditions: in vivo
[44] = target: Oxysterols receptor LXR-beta (Homo sapiens) (UniProt P55055); assay: Antagonist activity at LXRbeta (unknown origin) at 1 uM
Sequence of Oxysterols receptor LXR-beta (Homo sapiens) (P55055 whole entry): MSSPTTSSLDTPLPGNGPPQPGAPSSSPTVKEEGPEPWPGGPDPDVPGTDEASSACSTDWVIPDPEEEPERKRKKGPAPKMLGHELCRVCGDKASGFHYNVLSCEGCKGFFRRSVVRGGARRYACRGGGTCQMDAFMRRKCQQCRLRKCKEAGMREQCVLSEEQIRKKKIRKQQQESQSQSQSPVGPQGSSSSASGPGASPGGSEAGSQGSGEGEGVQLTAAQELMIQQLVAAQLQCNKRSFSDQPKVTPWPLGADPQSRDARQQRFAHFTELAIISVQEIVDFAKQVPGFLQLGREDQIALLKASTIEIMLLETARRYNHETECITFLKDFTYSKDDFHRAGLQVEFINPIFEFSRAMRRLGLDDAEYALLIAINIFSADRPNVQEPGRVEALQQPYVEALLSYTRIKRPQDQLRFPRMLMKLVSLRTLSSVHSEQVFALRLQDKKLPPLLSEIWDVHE

[45] = target: Receptor-type tyrosine-protein kinase FLT3 (Homo sapiens) (UniProt P36888); assay: Inhibition of FLT3 (unknown origin) at 1 uM
Mus musculus [46] = assay: Biotransformation in po dosed mouse assessed as (S)-Ethyl 4-(2-bromo-4-fluorophenyl)-6-(morpholinomethyl)-2-(thiazol-2-yl)-1,4-dihydropyrimidine-5-carboxylate formation; assay type: ADME, organism-based; conditions: in vivo
Homo sapiens [47] = species on record: Homo sapiens; assay: Inhibition of neural phospholipase (unknown origin) at 1 uM
Mus musculus [48] = assay: Biotransformation in po dosed mouse assessed as (R)-Ethyl 4-(2-bromo-4-fluorophenyl)-6-(morpholinomethyl)-2-(thiazol-2-yl)-1,4-dihydropyrimidine-5-carboxylate formation; assay type: ADME, organism-based; conditions: in vivo
[49] = target: Bile acid receptor (Homo sapiens) (UniProt Q96RI1); assay: Agonist activity at FXR (unknown origin) at 1 uM
in vivo [50] = conditions: beagle, dog, po, 45 mg/kg
Description: Half life in beagle dog at 45 mg/kg, po by LC/MS/MS analysis

[51] = target: Oxysterols receptor LXR-beta (Homo sapiens) (UniProt P55055); assay: Agonist activity at LXRbeta (unknown origin) at 1 uM
[52] = Drug uptake in beagle dog lung by LC/MS/MS analysis; assay type: ADME, tissue-based, Canis lupus familiaris; conditions: in vivo
[53] = target: D(1A) dopamine receptor (Homo sapiens) (UniProt P21728); assay: Inhibition of dopamine D1 receptor (unknown origin) at 1 uM
Sequence of D(1A) dopamine receptor (Homo sapiens) (P21728 whole entry): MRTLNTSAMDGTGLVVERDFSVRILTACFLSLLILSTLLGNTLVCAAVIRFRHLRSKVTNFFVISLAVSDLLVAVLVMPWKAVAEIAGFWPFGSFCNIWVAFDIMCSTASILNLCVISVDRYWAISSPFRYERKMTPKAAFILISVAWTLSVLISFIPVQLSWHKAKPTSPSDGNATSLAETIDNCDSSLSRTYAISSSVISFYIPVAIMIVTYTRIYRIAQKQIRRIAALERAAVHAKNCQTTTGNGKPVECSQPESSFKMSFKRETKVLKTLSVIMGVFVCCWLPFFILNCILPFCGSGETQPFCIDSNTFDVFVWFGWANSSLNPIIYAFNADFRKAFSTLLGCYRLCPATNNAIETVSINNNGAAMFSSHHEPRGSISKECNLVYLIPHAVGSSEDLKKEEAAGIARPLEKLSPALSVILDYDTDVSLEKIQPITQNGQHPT

[54] = target: Tyrosine-protein kinase ABL1 (Homo sapiens) (UniProt P00519); assay: Inhibition of ABL1 (unknown origin) at 1 uM
[55] = target: Prostaglandin G/H synthase 1 (Homo sapiens) (UniProt P23219); assay: Inhibition of COX-1 (unknown origin) at 1 uM
Sequence of Prostaglandin G/H synthase 1 (Homo sapiens) (P23219 whole entry, the tested form may be a part): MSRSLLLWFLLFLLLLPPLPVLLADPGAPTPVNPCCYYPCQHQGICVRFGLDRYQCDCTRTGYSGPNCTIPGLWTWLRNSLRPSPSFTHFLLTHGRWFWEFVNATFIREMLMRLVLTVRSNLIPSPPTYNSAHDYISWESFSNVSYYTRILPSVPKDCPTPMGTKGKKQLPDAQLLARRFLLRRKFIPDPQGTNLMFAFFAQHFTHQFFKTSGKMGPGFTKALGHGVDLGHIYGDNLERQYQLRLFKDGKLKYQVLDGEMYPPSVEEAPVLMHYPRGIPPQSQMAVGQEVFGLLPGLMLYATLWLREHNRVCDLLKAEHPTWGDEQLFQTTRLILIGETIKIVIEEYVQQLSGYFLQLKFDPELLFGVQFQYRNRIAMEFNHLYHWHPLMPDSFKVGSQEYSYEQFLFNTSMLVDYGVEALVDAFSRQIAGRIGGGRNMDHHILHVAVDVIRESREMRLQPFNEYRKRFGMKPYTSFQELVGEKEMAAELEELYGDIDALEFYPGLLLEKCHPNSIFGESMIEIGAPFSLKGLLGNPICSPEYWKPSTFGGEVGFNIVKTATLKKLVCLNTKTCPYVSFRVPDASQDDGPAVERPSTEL

[56] = target: Disintegrin and metalloproteinase domain-containing protein 17 (Homo sapiens) (UniProt P78536); assay: Inhibition of TACE (unknown origin) at 1 uM
Canis familiaris [57] = assay: Cmax in beagle dog at 45 mg/kg, po by LC/MS/MS analysis; assay type: ADME, organism-based, Canis lupus familiaris; design: dose 45 mg/kg, route oral; conditions: in vivo
in vivo [58] = conditions: beagle, dog, po, 15 mg/kg; remark: listed apart in the source
Description: Half life in beagle dog at 15 mg/kg, po by LC/MS/MS analysis

[59] = Cytotoxicity in human HepG2.215 cells assessed as reduction in cell viability after 5 days by CCK8 assay; assay type: cell-based, HepG2 2.2.15; conditions: HepG2.2.15 cells

Compound: CCOC(=O)C1=C(CN2CCOCC2)NC(c2nccs2)=NC1c1ccc(F)cc1Br (stereo unspecified)
- Drug uptake [1]: Active
- inhibition (Trypsin (Homo sapiens)): 4%
- inhibition [2]: -4%
- AUC(0-t) at 24 h [3]: 2760 ng·h/mL
- inhibition [4]: 3%
- inhibition [5]: 4%
- half-life [6]: 6.91 h
- Vd [7]: 6.86 L/kg
- inhibition (Homo sapiens [8]): 4%
- Drug uptake [9]: Not Active
- clearance [10]: 17.9 mL/min/kg
- AUC(0-t) at 24 h [11]: 695 ng·h/mL
- inhibition [12]: -1%
- inhibition [13]: -3%
- Cmax (Canis familiaris [14]): 524 ng/mL
- NOAEL at 672 h [15]: 10 mg/kg
- inhibition [16]: 1%
- inhibition [17]: 11%
- AUC at 24 h [18]: 2830 ng·h/mL
- AUC(0-t) at 24 h [19]: 4350 ng·h/mL
- bioavailability (in vivo [20]): 15.6%
- inhibition [21]: -3%
- inhibition [22]: 4%
- Cmax (Canis familiaris [23]): 136 ng/mL
- half-life [24]: 9.85 h
- inhibition [25]: 7%
- inhibition [26]: -3%
- half-life at 168 h (in vivo [27]): 9.47 h
- Drug uptake [28]: Not Active
- EC90 [29]: 6 nM
- inhibition [30]: 9%
- Cmax (Canis familiaris [31]): 698 ng/mL
- inhibition [32]: 0%
- inhibition [33]: 8%
- inhibition [34]: 7%
- AUC(0-t) at 24 h [35]: 8470 ng·h/mL
- inhibition (Homo sapiens [36]): 2%
- inhibition [37]: 10%
- inhibition [38]: 25%
- inhibition [39]: 7%
- inhibition (Homo sapiens [40]): -6%
- Drug metabolism (Canis familiaris [41]): Metabolite_Notdetected
- inhibition [42]: 1%
- Drug metabolism (Canis familiaris [43]): Metabolite_Notdetected
- inhibition [44]: -7%
- inhibition [45]: 4%
- Drug metabolism (Mus musculus [46]): Metabolite_Notdetected
- inhibition (Homo sapiens [47]): 9%
- Drug metabolism (Mus musculus [48]): Metabolite_Notdetected
- Activity [49]: 2%
- half-life (in vivo [50]): 6.29 h
- Activity [51]: 5%
- Drug uptake [52]: Not Active
- inhibition [53]: 7%
- inhibition [54]: 2%
- inhibition [55]: -10%
- inhibition [56]: 2%
- Cmax (Canis familiaris [57]): 1180 ng/mL
- half-life (in vivo [58]): 7.32 h

Compound: COC(=O)C1=C(C)NC(c2nccs2)=N[C@H]1c1ccc(F)cc1Cl
- CC50 at 120 h [59]: > 45000 nM
- EC90 [29]: 300 nM
